Measurements taken from patent US9783537B2, “3-(4-ethylnylphenyl) pyridopyrimidinone compounds and process for preparation thereof useful as potential anticancer agents” (Council of Scientific & Industrial Research, priority 2013, dated 2017).
Entries after “also recorded” stand apart in the source; their conditions may differ. Like-named read-outs stand apart in the source and are kept apart here.

Assays:
[1] = tested on: SR; experiment: SRB 48 h growth assay, Leukemia SR; assay type: cell-based, human; settings: Homo sapiens; for CC50: read-out: Log10 LC50 (converted)
[2] = tested on: eight renal cancer cell line (786-0, A498, ACHN, CAKI-1, SN12C, TK-10, UO-31 and RXF 393); experiment: in vitro anticancer activity, renal panel; assay type: cell-based; settings: Homo sapiens; eight renal cancer cell lines, exposure at least 48 h; read-out: in vitro anticancer activity, range over panel
[3] = tested on: sixty human cancer cell lines; experiment: anticancer activity against sixty human cancer cell lines (NCI)
Protocol: The compounds were evaluated for anticancer activity against sixty human cancer cells derived from nine cancer types (leukemia cell line, non-small-cell lung cell line, colon cell line, CNS cell line, melanoma cell line, ovarian cell line, prostate cell line, renal cell line and breast cancer cell line) as shown in Table 1. For each compound, dose response curves for each cell line were measured at a minimum of five concentrations at 10 fold dilutions. A protocol of 48 h continuous drug exposure was used and a sulforhodamine B (SRB) protein assay was used to estimate cell viability or growth.

[4] = tested on: NCI-H460; experiment: SRB 48 h growth assay, Non-small Cell Lung NCI-H460; assay type: cell-based, human; settings: for GI50: Homo sapiens
[5] = tested on: UO-31; experiment: SRB 48 h growth assay, Renal UO-31; assay type: cell-based, human; settings: UO-31, Renal
[6] = tested on: IGROV1; experiment: SRB 48 h growth assay, Ovarian IGROV1; assay type: cell-based, human
[7] = tested on: T-47D; experiment: SRB 48 h growth assay, Breast T-47D; assay type: cell-based, human; settings: for GI50: Homo sapiens, T47D
[8] = tested on: HCT-15; experiment: SRB 48 h growth assay, Colon HCT-15; assay type: cell-based, human; settings: HCT-15, Colon; for GI50: Homo sapiens
[9] = tested on: MALME-3M; experiment: SRB 48 h growth assay, Melanoma MALME-3M; assay type: cell-based, human
[10] = tested on: HCC-2998; experiment: SRB 48 h growth assay, Colon HCC-2998; assay type: cell-based, human; settings: HCC-2998, Colon
[11] = tested on: SF-539; experiment: SRB 48 h growth assay, CNS SF-539; assay type: cell-based, human; settings: SF-539, CNS; for GI50: Homo sapiens
[12] = tested on: U251; experiment: SRB 48 h growth assay, CNS U251; assay type: cell-based, human
[13] = tested on: A498; experiment: SRB 48 h growth assay, Renal A498; assay type: cell-based, human; settings: for GI50: Homo sapiens
[14] = tested on: CAKI-1; experiment: SRB 48 h growth assay, Renal CAKI-1; assay type: cell-based, human; settings: CAKI-1, Renal
[15] = tested on: SK-MEL-28; experiment: SRB 48 h growth assay, Melanoma SK-MEL-28; assay type: cell-based, human; settings: SK-MEL-28, Melanoma; for GI50: Homo sapiens
[16] = read-out: Growth Inhibition GI50
[17] = read-out: Log10 GI50 (converted)
[18] = Homo sapiens, read-out: Growth Inhibition GI50
[19] = Homo sapiens, read-out: Log10 GI50 (converted)
[20] = Homo sapiens, read-out: Log10 LC50 (converted)

Question: What does the source list for `C#Cc1ccc(-n2c(/C=C/c3ccc(Cl)c(F)c3)nc3ncccc3c2=O)cc1` [4g, (E)-2-(4-chloro-3-fluorostyryl)-3-(4-ethynylphenyl)pyrido[2,3-d]pyrimidin-4(3H)-one]?
Answer: GI50 [1, 16]: 330 nM; GI50 [1, 17]: 331 nM; CC50 [1]: > 100000 nM; GI50 [2]: 280 to 360 nM; anticancer activity (in words) [3]: highest anticancer activity; also recorded: good profile at nanomolar range growth inhibition activity in several cancer cell lines

Question: With `C#Cc1ccc(-n2c(/C=C/c3ccc4ccccc4n3)nc3ncccc3c2=O)cc1` [4t, (E)-3-(4-Ethynylphenyl)-2-(2-(quinolin-2-yl)vinyl)pyrido[2,3-d]pyrimidin-4(3H)-one] as the molecule, how does the “Log10 TGI50” value [4] read?
Answer: The value was −6.03.

Question: What about the GI50 [4, 16] of the same molecule?
Answer: Its GI50 is 290 nM.

Question: What about the GI50 [4, 17] of the same molecule?
Answer: The GI50 was 302 nM.

Question: What about the GI50 [5, 18] of the same molecule?
Answer: The GI50 was 310 nM.

Question: And the GI50 [5, 19]?
Answer: Its GI50 is 316 nM.

Question: What about the CC50 [5, 20] of the same molecule?
Answer: Its CC50 is 6920 nM.

Question: And the “Log10 TGI50” value [5]?
Answer: The value was −5.78.

Question: What about the “Log10 TGI50” value [6] of the same molecule?
Answer: Its value is −5.87.

Question: And the GI50 ([6]; Homo sapiens, IGROV-1, read-out: Growth Inhibition GI50)?
Answer: Its GI50 is 400 nM.

Question: What about the GI50 ([6]; Homo sapiens, IGROV-1, read-out: Log10 GI50 (converted)) of the same molecule?
Answer: The GI50 was 398 nM.

Question: And the CC50 ([6]; Homo sapiens, IGROV-1, read-out: Log10 LC50 (converted))?
Answer: Its CC50 is 5370 nM.

Question: And the “Log10 TGI50” value [7]?
Answer: Its value is −6.05.

Question: What about the GI50 [7, 16] of the same molecule?
Answer: Its GI50 is 290 nM.

Question: And the GI50 [7, 17]?
Answer: Its GI50 is 295 nM.

Question: What about the “Log10 TGI50” value [8] of the same molecule?
Answer: Its value is −5.88.

Question: And the GI50 [8, 16]?
Answer: The GI50 was 320 nM.

Question: And the GI50 [8, 17]?
Answer: The GI50 was 331 nM.

Question: And the GI50 [1, 16]?
Answer: The GI50 was 270 nM.

Question: And the GI50 [1, 17]?
Answer: Its GI50 is 275 nM.

Question: And the CC50 [1]?
Answer: Its CC50 is > 100000 nM.

Question: And the “Log10 TGI50” value [9]?
Answer: Its value is −5.50.

Question: And the GI50 [9, 18]?
Answer: The GI50 was 1210 nM.

Question: What about the GI50 [9, 19] of the same molecule?
Answer: The GI50 was 1200 nM.

Question: What about the CC50 [9, 20] of the same molecule?
Answer: The CC50 was 8320 nM.

Question: What about the “Log10 TGI50” value [10] of the same molecule?
Answer: The value was −5.92.

Question: And the GI50 [10, 18]?
Answer: The GI50 was 340 nM.

Question: What about the GI50 [10, 19] of the same molecule?
Answer: The GI50 was 347 nM.

Question: And the CC50 [10, 20]?
Answer: The CC50 was 6310 nM.

Question: What about the GI50 [11, 16] of the same molecule?
Answer: The GI50 was 200 nM.

Question: What about the GI50 [11, 17] of the same molecule?
Answer: Its GI50 is 204 nM.

Question: And the “Log10 TGI50” value [11]?
Answer: The value was −6.29.

Question: What about the “Log10 TGI50” value [12] of the same molecule?
Answer: Its value is −5.84.

Question: And the GI50 ([12]; Homo sapiens, U-251, read-out: Growth Inhibition GI50)?
Answer: The GI50 was 340 nM.

Question: And the GI50 ([12]; Homo sapiens, U-251, read-out: Log10 GI50 (converted))?
Answer: The GI50 was 339 nM.

Question: What about the CC50 ([12]; Homo sapiens, U-251, read-out: Log10 LC50 (converted)) of the same molecule?
Answer: The CC50 was 8130 nM.

Question: And the “Log10 TGI50” value [13]?
Answer: Its value is −6.14.

Question: And the GI50 [13, 16]?
Answer: The GI50 was 220 nM.

Question: What about the GI50 [13, 17] of the same molecule?
Answer: Its GI50 is 229 nM.

Question: What about the “Log10 TGI50” value [14] of the same molecule?
Answer: Its value is −5.81.

Question: And the GI50 [14, 18]?
Answer: Its GI50 is 320 nM.

Question: What about the GI50 [14, 19] of the same molecule?
Answer: Its GI50 is 324 nM.

Question: And the CC50 [14, 20]?
Answer: The CC50 was > 100000 nM.

Question: And the GI50 [15, 16]?
Answer: The GI50 was 1050 nM.

Question: What about the GI50 [15, 17] of the same molecule?
Answer: Its GI50 is 1050 nM.

Question: And the “Log10 TGI50” value [15]?
Answer: The value was −5.51.

Question: What about the GI50 [2] of the same molecule?
Answer: The GI50 was 1480 to 8780 nM.
